Test results from article PMC3094704, “S-Petasin, the Main Sesquiterpene of Petasites formosanus, Inhibits Phosphodiesterase Activity and Suppresses Ovalbumin-Induced Airway Hyperresponsiveness” (Evidence-based Complementary and Alternative Medicine : eCAM, 2011).
Values belong to the molecule of their own block, whether it stands above or below them.

Experiments:
[1] = system: cAMP-phosphodiesterase (PDE); set-up: method as in PMID 11345692; details: cited from earlier work
[2] = system: guinea pig trachea; details: cited from earlier work
[3] = system: female BALB/c mice; assay: Xylazine/ketamine-induced anesthesia; type: in vivo, mouse; details: 0.1–1 μmol/kg s.c., 15 min before anesthesia
Protocol: According to the method described by Robichaud et al. and modified by us, S-petasin (10–100 μmol/kg, s.c.) or rolipram (0.01–1 μmol/kg, s.c.), a reference drug, was injected into 8–12 week-old female BALB/c mice 1 h or 15 min, respectively, prior to an i.p. injection of xylazine (10 mg/kg)/ketamine (70 mg/kg). The vehicle (control) for S-petasin or for rolipram was a mixture of alcohol : DMSO : 30% HPβCD : saline (0.5 : 0.5 : 1 : 8 , v/v), or alcohol : DMSO : PEG 400 : saline (0.5 : 0.5 : 1 : 8, v/v), respectively. After loss of the righting reflex (i.e., when a mouse remained on its back and no longer spontaneously righted itself to a prone position), the duration of anesthesia was measured until its return as an endpoint.

[4] = system: PDE1; assay: Inhibition of PDE1 activity (two-step radioenzymatic assay); type: biochemical, guinea pig; details: mean ± SEM (n); read-out: IC50 on PDE isozyme 1
Protocol: Activities of PDE1–5, partially separated from guinea pig lungs and hearts according to the method described by Ko et al., were measured with a two-step procedure according to the method of Thompson and Appleman, using cAMP with [^3H]-cAMP or cGMP with [^3H]-cGMP as substrates. The enzyme pμreparation (25 μL) was incubated for 30 min at 37°C in a total assay volume of […] containing 50 mM Tris-HCl (pH 7.4), 3 mM MgCl2, 1 mM dithiothreitol, 0.05% BSA, 1 μM cAMP with 0.2 μCi [^3H]-cAMP as a substrate alone or in the presence of 0.1 units calmodulin with 10 μM CaCl2 or 5 μM cGMP, and 1 μM cGMP with 0.2 μCi [^3H]-cGMP as another substrate alone or in the presence of 0.1 units calmodulin with 10 μM CaCl2. In tests of enzyme inhibition, the reaction mixture contained 10 μL of vehicle or inhibitors, at various concentrations of S-petasin or selective PDE1–5 inhibitors, such as vinpocetin [22], EHNA [23], milrinone, Ro 20-1724 [25] and zaprinast, as reference drugs. The reagents and homogenate were mixed on ice, and the reaction was initiated by transferring the mixture to a water bath at 37°C. Following a 30-min incubation, the reaction was stopped by transferring the reaction vessel to a bath of boiling water for 3 min. After cooling on ice, 20 μL of a 1 mg/mL solution of C. atrox snake venom was added to the reaction mixture, and the mixture was incubated at 37°C for 10 min. […]

Molecule: S-isopetasin
Inhibition of cAMP-phosphodiesterase (PDE) activity [1]: not
IC50 ([2]; precontracted by CCh and KCl, read-out: IC50 in relaxing guinea pig trachea): ~10 µM
Relaxing effect on guinea pig trachea ([2]; precontracted by histamine and LT D4): almost no effect

Molecule: COc1ccc(C2CNC(=O)C2)cc1OC1CCCC1 (centres unmarked) [rolipram, reference compound]
Duration of xylazine/ketamine-induced anesthesia [3]: dose-dependently and significantly shortened

IC50 [4]: 36.5 ± 8.8 µM
Molecule: CCOC(=O)C1=C[C@]2(CC)CCCN3CCc4c(n1c1ccccc41)[C@@H]32 [vinpocetin, Vinpocetine, reference compound]
